Patent publication US10053417B2, “Neprilysin inhibitors” (THERAVANCE BIOPHARMA R&D IP, LLC, priority 2013, dated 2018)

Biological target: T1, human NEP (Homo sapiens, UniProt P08473)
T1 construct: purchased R&D Systems, Minneapolis, Minn; 1182-ZN
Assay: In vitro enzyme inhibition assay, inhibitor potency at human NEP (Assay 1)
Format: biochemical
Conditions: recombinant human NEP; fluorogenic peptide substrate 10 μM; 37° C.; values given as ranges
Method: The inhibitory activities of compounds at human and rat neprilysin (EC 3.4.24.11; NEP) and human angiotensin converting enzyme (ACE) were determined using in vitro assays as described below.
Recombinant human NEP and recombinant human ACE were obtained commercially (R&D Systems, Minneapolis, Minn., catalog numbers 1182-ZN and 929-ZN, respectively). The fluorogenic peptide substrate Mca-D-Arg-Arg-Leu-Dap-(Dnp)-OH (Medeiros et al. (1997) Braz. J. Med. Biol. Res. 30:1157-62; Anaspec, San Jose, Calif.) and Abz-Phe-Arg-Lys(Dnp)-Pro-OH (Araujo et al. (2000) Biochemistry 39:8519-8525; Bachem, Torrance, Calif.) were used in the NEP and ACE assays respectively.
The assays were performed in 384-well white opaque plates at 37° C. using the fluorogenic peptide substrates at a concentration of 10 μM in Assay Buffer (NEP: 50 mM HEPES, pH 7.5, 100 mM NaCl, 0.01% polyethylene glycol sorbitan monolaurate (Tween-20), 10 μM ZnSO4; ACE: 50 mM HEPES, pH 7.5, 100 mM NaCl, 0.01% Tween-20, 1 μM ZnSO4).
Test compounds were assayed over the range of concentrations from […] to 20 μM. Test compounds were added to the enzymes and incubated for 30 minute at 37° C. prior to initiating the reaction by the addition of substrate. Reactions were terminated after 20 minutes of incubation at 37° C. by the addition of glacial acetic acid to a final concentration of 3.6% (v/v).
Plates were read on a fluorometer with excitation and emission wavelengths set to 320 nm and 405 nm, respectively. Inhibition constants were obtained by nonlinear regression of the data using the equation (GraphPad Software, Inc., San Diego, Calif.): ν=ν0/[1+(I/K′)] where ν is the reaction rate, ν0 is the uninhibited reaction rate, I is the inhibitor concentration and K′ is the apparent inhibition constant.
Compounds of the invention were tested in this assay and found to have pKi values at human NEP as follows.

T1 sequence (P08473 52-750 limits assumed): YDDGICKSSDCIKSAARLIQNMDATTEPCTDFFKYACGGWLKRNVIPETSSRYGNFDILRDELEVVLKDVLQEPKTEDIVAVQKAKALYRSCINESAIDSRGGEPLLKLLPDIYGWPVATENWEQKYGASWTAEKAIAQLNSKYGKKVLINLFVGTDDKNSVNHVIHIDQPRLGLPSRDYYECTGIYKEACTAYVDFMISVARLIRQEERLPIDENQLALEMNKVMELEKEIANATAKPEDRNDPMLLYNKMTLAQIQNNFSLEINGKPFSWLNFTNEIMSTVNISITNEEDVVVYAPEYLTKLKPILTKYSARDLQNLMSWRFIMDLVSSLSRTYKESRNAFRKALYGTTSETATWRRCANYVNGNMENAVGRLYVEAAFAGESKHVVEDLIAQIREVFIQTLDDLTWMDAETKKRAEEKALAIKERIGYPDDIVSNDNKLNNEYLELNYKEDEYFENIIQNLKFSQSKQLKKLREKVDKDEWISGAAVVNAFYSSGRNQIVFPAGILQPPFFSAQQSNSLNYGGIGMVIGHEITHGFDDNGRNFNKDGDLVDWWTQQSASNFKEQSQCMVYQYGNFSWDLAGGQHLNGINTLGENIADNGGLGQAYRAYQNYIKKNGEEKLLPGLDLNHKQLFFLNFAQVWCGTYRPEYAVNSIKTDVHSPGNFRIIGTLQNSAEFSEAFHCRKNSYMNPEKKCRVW

Question: Which Ki does the source give for CCC(=O)C(=O)N[C@H](Cc1ccc(-c2cccc(Cl)c2)cc1)C[C@@H](O)C(=O)O [Example 1, (2R,4R)-5-(3′-Chlorobiphenyl-4-yl)-2-hydroxy-4-(2-oxobutyrylamino)pentanoic Acid] here?
Answer: 1 to 10 nM

Question: For CC(C)CC(=O)C(=O)N[C@H](Cc1ccc(-c2cccc(Cl)c2)cc1)C[C@@H](O)C(=O)O [Example 2-1, (2R,4R)-5-(3′-Chloro-biphenyl-4-yl)-2-hydroxy-4-(4-methyl-2-oxo-pentanoylamino)-pentanoic acid], which Ki is on record?
Answer: 1 to 10 nM

Question: O=C(Cc1ccccc1)C(=O)N[C@H](Cc1ccc(-c2cccc(Cl)c2)cc1)C[C@@H](O)C(=O)O [Example 2-2, (2R,4R)-5-(3′-Chloro-biphenyl-4-yl)-2-hydroxy-4-(2-oxo-3-phenyl-propionylamino)-pentanoic acid] was tested. Which Ki did it give?
Answer: 1 to 10 nM

Question: How did the Ki turn out when O=C(N[C@H](Cc1ccc(-c2cccc(Cl)c2)cc1)C[C@@H](O)C(=O)O)C(=O)N1CCC[C@H]1CO [Example 3, (2R,4R)-5-(3′-Chlorobiphenyl-4-yl)-2-hydroxy-4-[2-((S)-2-hydroxymethylpyrrolidin-1-yl)-2-oxo-acetylamino]pentanoic Acid] was run?
Answer: ≤ 1 nM

Question: For O=C(NC1CCCC1)C(=O)N[C@H](Cc1ccc(-c2cccc(Cl)c2)cc1)C[C@@H](O)C(=O)O [Example 4-1, (2R,4R)-5-(3′-Chlorobiphenyl-4-yl)-4-(cyclopentylaminooxalylamino)-2-hydroxypentanoic acid], which Ki is on record?
Answer: 10 to 31.6 nM

Question: How did the Ki turn out when O=C(Nc1ccc(Br)nc1)C(=O)N[C@H](Cc1ccc(-c2cccc(Cl)c2)cc1)C[C@@H](O)C(=O)O [Example 4-2, (2R,4R)-4-[(6-Bromopyridin-3-ylaminooxalyl)amino]-5-(3′-chlorobiphenyl-4-yl)-2-hydroxypentanoic acid] was run?
Answer: 10 to 31.6 nM

Question: O=C(Nc1ccncc1)C(=O)N[C@H](Cc1ccc(-c2cccc(Cl)c2)cc1)C[C@@H](O)C(=O)O [Example 4-3, (2R,4R)-5-(3′-Chlorobiphenyl-4-yl)-2-hydroxy-4-[(pyridin-4-ylaminooxalyl)-amino]-pentanoic acid] was tested. Which Ki did it give?
Answer: 10 to 31.6 nM

Question: For Cc1ccncc1NC(=O)C(=O)N[C@H](Cc1ccc(-c2cccc(Cl)c2)cc1)C[C@@H](O)C(=O)O [Example 4-4, (2R,4R)-5-(3′-Chlorobiphenyl-4-yl)-2-hydroxy-4-[(4-methylpyridin-3-ylaminooxalyl)amino]pentanoic acid], which Ki is on record?
Answer: 1 to 10 nM

Question: Which Ki does the source give for O=C(NOCc1ccccc1)C(=O)N[C@H](Cc1ccc(-c2cccc(Cl)c2)cc1)C[C@@H](O)C(=O)O [Example 4-5, (2R,4R)-4-(Benzyloxyaminooxalylamino)-5-(3′-chlorobiphenyl-4-yl)-2-hydroxy-pentanoic acid] here?
Answer: 10 to 31.6 nM

Question: With CONC(=O)C(=O)N[C@H](Cc1ccc(-c2cccc(Cl)c2)cc1)C[C@@H](O)C(=O)O [Example 4-6, (2R,4R)-5-(3′-Chlorobiphenyl-4-yl)-2-hydroxy-4-(methoxyaminooxalylamino)-pentanoic acid] as the molecule, how does the Ki read?
Answer: 1 to 10 nM

Question: With O=C(NC1CONC1=O)C(=O)N[C@H](Cc1ccc(-c2cccc(Cl)c2)cc1)C[C@@H](O)C(=O)O (stereo partly drawn) [Example 4-7, (2R,4R)-5-(3′-Chlorobiphenyl-4-yl)-2-hydroxy-4-[(3-oxo-isoxazolidin-4-ylaminooxalyl)-amino]pentanoic acid] as the molecule, how does the Ki read?
Answer: 1 to 10 nM

Question: O=C(N[C@H](Cc1ccc(-c2cccc(Cl)c2)cc1)C[C@@H](O)C(=O)O)C(=O)NN1CCOCC1 [Example 4-8, (2R,4R)-5-(3′-Chlorobiphenyl-4-yl)-2-hydroxy-4-[(morpholin-4-ylaminooxalyl)-amino]pentanoic acid] was tested. Which Ki did it give?
Answer: 10 to 31.6 nM

Question: For O=C(N[C@H](Cc1ccc(-c2cccc(Cl)c2)cc1)C[C@@H](O)C(=O)O)C(=O)N(O)c1ccccc1 [Example 4-9, (2R,4R)-5-(3′-Chlorobiphenyl-4-yl)-2-hydroxy-4-[(hydroxyphenylaminooxalyl)-amino]pentanoic acid], which pKi is on record?
Answer: 8.0-9.0

Question: With CN(O)C(=O)C(=O)N[C@H](Cc1ccc(-c2cccc(Cl)c2)cc1)C[C@@H](O)C(=O)O [Example 4-10, (2R,4R)-5-(3′-Chlorobiphenyl-4-yl)-2-hydroxy-4-[(hydroxymethylaminooxalyl)-amino]pentanoic acid] as the molecule, how does the pKi read?
Answer: 7.5-8.0

Question: Which Ki does the source give for CN(C)C(=O)C(=O)N[C@H](Cc1ccc(-c2cccc(Cl)c2)cc1)C[C@@H](O)C(=O)O [Example 4-11, (2R,4R)-5-(3′-Chlorobiphenyl-4-yl)-4-(dimethylaminooxalylamino)-2-hydroxy-pentanoic acid] here?
Answer: 10 to 31.6 nM

Question: For CON(C)C(=O)C(=O)N[C@H](Cc1ccc(-c2cccc(Cl)c2)cc1)C[C@@H](O)C(=O)O [Example 4-12, (2R,4R)-5-(3′-Chlorobiphenyl-4-yl)-2-hydroxy-4-[(methoxymethylaminooxalyl)-amino]pentanoic acid], which Ki is on record?
Answer: 1 to 10 nM

Question: Which Ki does the source give for O=C(N[C@H](Cc1ccc(-c2cccc(Cl)c2)cc1)C[C@@H](O)C(=O)O)C(=O)N1CC(O)C1 [Example 4-13, (2R,4R)-5-(3′-Chlorobiphenyl-4-yl)-2-hydroxy-4-[2-(3-hydroxyazetidin-1-yl)-2-oxo-acetylamino]pentanoic acid] here?
Answer: 1 to 10 nM

Question: Which Ki does the source give for O=C(N[C@H](Cc1ccc(-c2cccc(Cl)c2)cc1)C[C@@H](O)C(=O)O)C(=O)N1CC(F)(F)C1 [Example 4-14, (2R,4R)-5-(3′-Chlorobiphenyl-4-yl)-4-[2-(3,3-difluoroazetidin-1-yl)-2-oxo-acetylamino]-2-hydroxypentanoic acid] here?
Answer: 10 to 31.6 nM

Question: How did the Ki turn out when CS(=O)(=O)C1CCN(C(=O)C(=O)N[C@H](Cc2ccc(-c3cccc(Cl)c3)cc2)C[C@@H](O)C(=O)O)C1 (stereo partly drawn) [Example 4-15, (2R,4R)-5-(3′-Chlorobiphenyl-4-yl)-2-hydroxy-4-[2-(3-methanesulfonyl-pyrrolidin-1-yl)-2-oxo-acetylamino]pentanoic acid] was run?
Answer: 1 to 10 nM

Question: O=C(N[C@H](Cc1ccc(-c2cccc(Cl)c2)cc1)C[C@@H](O)C(=O)O)C(=O)N1CCC[C@@H]1CO [Example 4-16, (2R,4R)-5-(3′-Chlorobiphenyl-4-yl)-2-hydroxy-4-[2-((R)-2-hydroxymethyl-pyrrolidin-1-yl)-2-oxo-acetylamino]pentanoic acid] was tested. Which Ki did it give?
Answer: 1 to 10 nM

Question: For NC(=O)C1CCN(C(=O)C(=O)N[C@H](Cc2ccc(-c3cccc(Cl)c3)cc2)C[C@@H](O)C(=O)O)C1 (stereo partly drawn) [Example 4-17, (2R,4R)-4-[2-(3-Carbamoylpyrrolidin-1-yl)-2-oxo-acetylamino]-5-(3′-chloro-biphenyl-4-yl)-2-hydroxypentanoic acid], which Ki is on record?
Answer: 10 to 31.6 nM

Question: For O=C(N[C@H](Cc1ccc(-c2cccc(Cl)c2)cc1)C[C@@H](O)C(=O)O)C(=O)N1CCC(O)CC1 [Example 4-18, (2R,4R)-5-(3′-Chlorobiphenyl-4-yl)-2-hydroxy-4-[2-(4-hydroxy-piperidin-1-yl)-2-oxo-acetylamino]pentanoic acid], which Ki is on record?
Answer: ≤ 1 nM

Question: With COCC1CCN(C(=O)C(=O)N[C@H](Cc2ccc(-c3cccc(Cl)c3)cc2)C[C@@H](O)C(=O)O)CC1 [Example 4-19, (2R,4R)-5-(3′-Chlorobiphenyl-4-yl)-2-hydroxy-4-[2-(4-methoxymethyl-piperidin-1-yl)-2-oxo-acetylamino]pentanoic acid] as the molecule, how does the Ki read?
Answer: 10 to 31.6 nM

Question: With O=C(N[C@H](Cc1ccc(-c2cccc(Cl)c2)cc1)C[C@@H](O)C(=O)O)C(=O)N1CCC(CO)CC1 [Example 4-20, (2R,4R)-5-(3′-Chlorobiphenyl-4-yl)-2-hydroxy-4-[2-(4-hydroxymethyl-piperidin-1-yl)-2-oxo-acetylamino]pentanoic acid] as the molecule, how does the Ki read?
Answer: ≤ 1 nM

Question: For O=C(N[C@H](Cc1ccc(-c2cccc(Cl)c2)cc1)C[C@@H](O)C(=O)O)C(=O)N1CCC[C@@H](O)C1 [Example 4-21, (2R,4R)-5-(3′-Chlorobiphenyl-4-yl)-2-hydroxy-4-[2-((R)-3-hydroxy-piperidin-1-yl)-2-oxo-acetylamino]pentanoic acid], which Ki is on record?
Answer: 1 to 10 nM

Question: Which Ki does the source give for CC1(O)CCN(C(=O)C(=O)N[C@H](Cc2ccc(-c3cccc(Cl)c3)cc2)C[C@@H](O)C(=O)O)CC1 [Example 4-22, (2R,4R)-5-(3′-Chlorobiphenyl-4-yl)-2-hydroxy-4-[2-(4-hydroxy-4-methyl-piperidin-1-yl)-2-oxo-acetylamino]pentanoic acid] here?
Answer: 1 to 10 nM

Question: Which Ki does the source give for O=C(N[C@H](Cc1ccc(-c2cccc(Cl)c2)cc1)C[C@@H](O)C(=O)O)C(=O)N1CCC(c2ccncc2)CC1 [Example 4-23, (2R,4R)-5-(3′-Chlorobiphenyl-4-yl)-2-hydroxy-4-[2-oxo-2-(3,4,5,6-tetrahydro-2H-[4,4′]bipyridinyl-1-yl)-acetylamino]pentanoic acid] here?
Answer: 10 to 31.6 nM

Question: Which Ki does the source give for O=C(N[C@H](Cc1ccc(-c2cccc(Cl)c2)cc1)C[C@@H](O)C(=O)O)C(=O)N1CCC(CCO)CC1 [Example 4-24, (2R,4R)-5-(3′-Chlorobiphenyl-4-yl)-2-hydroxy-4-{2-[4-(2-hydroxyethyl)-piperidin-1-yl]-2-oxo-acetylamino}pentanoic acid] here?
Answer: 1 to 10 nM
